Article PMC11097369 (ACS Omega, 2024)

Experiments:
CFU-GM assay = assay type: cell-based; conditions: human, human bone marrow mononuclear cells
R/R-PTCL = conditions: cited from earlier work
SCLC = conditions: second-line treatment, patients with SCLC; cited from earlier work

SMILES | IC90 (CFU-GM assay) | progression-free survival compared to investigator-selected single-agent comparators (R/R-PTCL) | overall response rate (SCLC)
COc1cc(Nc2ncc3c(n2)-c2ccc(Cl)cc2C(c2c(F)cccc2OC)=NC3)ccc1C(=O)O [Alisertib] | 252 nM | failed to improve the progression-free survival | –
COc1ccc2[nH]c3c(c2c1)CCN[C@]31CS[C@@H]2c3c(OC(C)=O)c(C)c4c(c3[C@H](COC1=O)N1[C@@H]2[C@H]2c3c(cc(C)c(OC)c3O)C[C@@H]([C@@H]1O)N2C)OCO4 [lurbinectedin] | – | – | 35.2%
